Data reported in ChEMBL document CHEMBL5291721, “A preclinical secondary pharmacology resource illuminates target-adverse drug reaction associations of marketed drugs” (Nat Commun, 2023).

Columns and labels:
[1] = target: 3',5'-cyclic-AMP phosphodiesterase 4A (Homo sapiens, UniProt P27815); format: functional
[2] = target: T1, Muscarinic acetylcholine receptor M2 (Homo sapiens, UniProt P08172)
T1 sequence (P08172 whole entry): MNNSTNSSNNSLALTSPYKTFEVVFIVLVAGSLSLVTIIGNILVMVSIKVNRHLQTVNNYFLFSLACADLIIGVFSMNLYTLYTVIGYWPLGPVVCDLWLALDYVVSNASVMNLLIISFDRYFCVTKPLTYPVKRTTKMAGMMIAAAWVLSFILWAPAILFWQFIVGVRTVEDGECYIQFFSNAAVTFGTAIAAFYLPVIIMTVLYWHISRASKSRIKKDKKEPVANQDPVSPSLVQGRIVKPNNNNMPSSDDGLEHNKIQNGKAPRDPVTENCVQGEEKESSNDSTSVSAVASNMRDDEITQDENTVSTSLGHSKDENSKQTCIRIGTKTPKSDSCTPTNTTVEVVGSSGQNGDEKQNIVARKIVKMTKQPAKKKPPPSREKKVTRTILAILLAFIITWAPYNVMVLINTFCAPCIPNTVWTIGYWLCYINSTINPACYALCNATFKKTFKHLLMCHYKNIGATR

[3] = target: Vascular endothelial growth factor receptor 2 (Homo sapiens, UniProt P35968); format: functional
[4] = target: Prostaglandin G/H synthase 1 (Homo sapiens, UniProt P23219); format: functional
[5] = target: T2, Muscarinic acetylcholine receptor M1 (Homo sapiens, UniProt P11229); format: functional, cell-based
T2 sequence (P11229 whole entry): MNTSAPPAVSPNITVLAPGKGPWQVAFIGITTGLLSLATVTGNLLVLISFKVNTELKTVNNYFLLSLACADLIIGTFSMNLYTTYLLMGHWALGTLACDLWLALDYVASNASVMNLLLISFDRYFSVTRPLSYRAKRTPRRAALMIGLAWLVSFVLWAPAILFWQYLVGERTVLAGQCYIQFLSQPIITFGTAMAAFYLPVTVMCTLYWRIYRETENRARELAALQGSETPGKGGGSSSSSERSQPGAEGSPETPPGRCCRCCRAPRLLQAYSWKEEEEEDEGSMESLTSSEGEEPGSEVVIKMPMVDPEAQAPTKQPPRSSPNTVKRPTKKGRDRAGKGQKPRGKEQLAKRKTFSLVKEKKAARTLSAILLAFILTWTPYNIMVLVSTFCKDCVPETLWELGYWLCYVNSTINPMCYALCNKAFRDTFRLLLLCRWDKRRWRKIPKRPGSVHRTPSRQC

[6] = target: Sodium-dependent noradrenaline transporter (Homo sapiens, UniProt P23975)
Thromboxane A2 receptor = target: T3, Thromboxane A2 receptor (Homo sapiens, UniProt P21731); format: functional, cell-based
T3 sequence (P21731 whole entry): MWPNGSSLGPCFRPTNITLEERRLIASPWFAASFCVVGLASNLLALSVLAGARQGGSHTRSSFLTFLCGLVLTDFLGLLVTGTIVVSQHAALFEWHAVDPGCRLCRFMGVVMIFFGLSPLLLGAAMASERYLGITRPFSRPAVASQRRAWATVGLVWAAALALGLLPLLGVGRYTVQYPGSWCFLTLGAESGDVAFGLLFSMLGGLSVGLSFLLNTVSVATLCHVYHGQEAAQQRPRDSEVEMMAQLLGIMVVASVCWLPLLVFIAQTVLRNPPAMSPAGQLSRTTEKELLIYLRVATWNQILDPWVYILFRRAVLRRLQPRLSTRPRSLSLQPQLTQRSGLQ

[7] = target: T4, Alpha-1A adrenergic receptor (Homo sapiens, UniProt P35348); format: functional, cell-based
T4 sequence (P35348 whole entry): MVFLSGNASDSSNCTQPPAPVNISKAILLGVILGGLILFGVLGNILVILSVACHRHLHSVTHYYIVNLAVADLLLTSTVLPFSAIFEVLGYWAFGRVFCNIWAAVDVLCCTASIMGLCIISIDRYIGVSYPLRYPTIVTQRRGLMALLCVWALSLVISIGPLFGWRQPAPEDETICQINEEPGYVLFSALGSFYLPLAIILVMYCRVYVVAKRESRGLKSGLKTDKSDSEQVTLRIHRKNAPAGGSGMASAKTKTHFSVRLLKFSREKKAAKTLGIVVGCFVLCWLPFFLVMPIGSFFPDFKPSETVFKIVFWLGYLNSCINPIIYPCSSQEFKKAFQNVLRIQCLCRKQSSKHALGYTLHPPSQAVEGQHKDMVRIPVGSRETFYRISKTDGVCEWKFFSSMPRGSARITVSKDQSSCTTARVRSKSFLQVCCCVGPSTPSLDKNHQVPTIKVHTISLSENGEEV

[8] = target: T2, Muscarinic acetylcholine receptor M1; format: functional, cell-based; remark: listed apart in the source
[9] = target: T5, Alpha-2A adrenergic receptor (Homo sapiens, UniProt P08913)
T5 sequence (P08913 whole entry): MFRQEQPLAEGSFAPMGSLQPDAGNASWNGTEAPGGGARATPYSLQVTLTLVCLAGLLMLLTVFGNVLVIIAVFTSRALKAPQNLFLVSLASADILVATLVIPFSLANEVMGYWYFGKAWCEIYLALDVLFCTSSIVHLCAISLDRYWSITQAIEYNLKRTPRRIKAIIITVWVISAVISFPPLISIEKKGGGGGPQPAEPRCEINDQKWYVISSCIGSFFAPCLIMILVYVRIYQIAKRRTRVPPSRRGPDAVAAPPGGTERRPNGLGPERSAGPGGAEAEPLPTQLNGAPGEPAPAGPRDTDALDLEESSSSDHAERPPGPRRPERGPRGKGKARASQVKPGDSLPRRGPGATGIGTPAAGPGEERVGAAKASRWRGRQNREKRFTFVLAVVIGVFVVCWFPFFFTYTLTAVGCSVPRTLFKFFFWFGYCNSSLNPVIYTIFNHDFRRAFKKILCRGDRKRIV

[10] = target: Sodium-dependent serotonin transporter (Homo sapiens, UniProt P31645)
Mu-type opioid receptor = Mu-type opioid receptor (Homo sapiens, UniProt P35372)
Also: assay procedure not described here.

Prostaglandin G/H synthase 1, sequence (P23219 whole entry): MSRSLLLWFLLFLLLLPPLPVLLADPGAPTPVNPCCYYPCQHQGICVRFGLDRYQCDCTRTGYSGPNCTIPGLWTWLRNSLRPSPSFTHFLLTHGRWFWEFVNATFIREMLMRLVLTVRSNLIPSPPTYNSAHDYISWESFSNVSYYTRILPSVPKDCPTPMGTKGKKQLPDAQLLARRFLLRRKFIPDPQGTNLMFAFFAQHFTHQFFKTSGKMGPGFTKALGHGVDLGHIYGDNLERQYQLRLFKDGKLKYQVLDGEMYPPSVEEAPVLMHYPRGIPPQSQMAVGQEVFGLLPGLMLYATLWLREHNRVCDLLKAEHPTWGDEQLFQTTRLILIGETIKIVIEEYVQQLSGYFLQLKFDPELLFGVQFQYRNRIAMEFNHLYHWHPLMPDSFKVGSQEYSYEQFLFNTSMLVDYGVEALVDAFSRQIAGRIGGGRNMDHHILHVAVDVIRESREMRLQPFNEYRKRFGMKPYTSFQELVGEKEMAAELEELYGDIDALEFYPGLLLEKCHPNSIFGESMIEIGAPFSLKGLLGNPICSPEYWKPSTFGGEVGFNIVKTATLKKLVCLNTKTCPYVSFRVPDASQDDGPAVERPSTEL
Mu-type opioid receptor, sequence (P35372 whole entry): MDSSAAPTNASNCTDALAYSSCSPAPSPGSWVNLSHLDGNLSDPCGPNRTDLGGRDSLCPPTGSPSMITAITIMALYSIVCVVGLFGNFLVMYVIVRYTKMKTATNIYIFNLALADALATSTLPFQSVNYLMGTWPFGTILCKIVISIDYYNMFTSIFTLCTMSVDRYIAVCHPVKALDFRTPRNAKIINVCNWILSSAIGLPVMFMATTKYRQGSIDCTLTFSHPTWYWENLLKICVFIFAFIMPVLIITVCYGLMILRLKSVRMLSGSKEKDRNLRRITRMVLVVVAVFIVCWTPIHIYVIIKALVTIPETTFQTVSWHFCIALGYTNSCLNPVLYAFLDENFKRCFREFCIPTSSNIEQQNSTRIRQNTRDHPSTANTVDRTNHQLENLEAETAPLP
3',5'-cyclic-AMP phosphodiesterase 4A, sequence (P27815 whole entry): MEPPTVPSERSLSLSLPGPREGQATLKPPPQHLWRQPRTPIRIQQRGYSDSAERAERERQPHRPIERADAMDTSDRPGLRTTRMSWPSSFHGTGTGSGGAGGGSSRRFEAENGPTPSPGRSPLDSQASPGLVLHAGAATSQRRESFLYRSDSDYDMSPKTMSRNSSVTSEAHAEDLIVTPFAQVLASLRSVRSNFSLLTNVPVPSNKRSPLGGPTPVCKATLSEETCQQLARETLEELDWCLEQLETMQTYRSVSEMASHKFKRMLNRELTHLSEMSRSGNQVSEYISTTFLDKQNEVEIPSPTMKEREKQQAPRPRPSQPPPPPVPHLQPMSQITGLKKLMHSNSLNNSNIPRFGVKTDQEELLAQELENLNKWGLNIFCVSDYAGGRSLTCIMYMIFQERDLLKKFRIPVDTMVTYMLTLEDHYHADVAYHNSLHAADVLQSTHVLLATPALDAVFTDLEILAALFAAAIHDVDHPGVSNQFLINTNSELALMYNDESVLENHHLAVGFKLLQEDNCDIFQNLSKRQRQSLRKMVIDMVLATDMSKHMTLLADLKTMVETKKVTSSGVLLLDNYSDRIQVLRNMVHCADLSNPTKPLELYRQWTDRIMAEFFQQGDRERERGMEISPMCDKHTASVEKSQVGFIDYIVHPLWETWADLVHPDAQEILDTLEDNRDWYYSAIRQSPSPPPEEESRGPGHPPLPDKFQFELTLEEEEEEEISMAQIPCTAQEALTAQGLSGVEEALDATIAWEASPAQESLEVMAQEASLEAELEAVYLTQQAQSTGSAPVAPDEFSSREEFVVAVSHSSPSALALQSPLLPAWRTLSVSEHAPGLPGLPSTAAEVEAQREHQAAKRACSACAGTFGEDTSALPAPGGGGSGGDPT
Sodium-dependent serotonin transporter, sequence (P31645 whole entry): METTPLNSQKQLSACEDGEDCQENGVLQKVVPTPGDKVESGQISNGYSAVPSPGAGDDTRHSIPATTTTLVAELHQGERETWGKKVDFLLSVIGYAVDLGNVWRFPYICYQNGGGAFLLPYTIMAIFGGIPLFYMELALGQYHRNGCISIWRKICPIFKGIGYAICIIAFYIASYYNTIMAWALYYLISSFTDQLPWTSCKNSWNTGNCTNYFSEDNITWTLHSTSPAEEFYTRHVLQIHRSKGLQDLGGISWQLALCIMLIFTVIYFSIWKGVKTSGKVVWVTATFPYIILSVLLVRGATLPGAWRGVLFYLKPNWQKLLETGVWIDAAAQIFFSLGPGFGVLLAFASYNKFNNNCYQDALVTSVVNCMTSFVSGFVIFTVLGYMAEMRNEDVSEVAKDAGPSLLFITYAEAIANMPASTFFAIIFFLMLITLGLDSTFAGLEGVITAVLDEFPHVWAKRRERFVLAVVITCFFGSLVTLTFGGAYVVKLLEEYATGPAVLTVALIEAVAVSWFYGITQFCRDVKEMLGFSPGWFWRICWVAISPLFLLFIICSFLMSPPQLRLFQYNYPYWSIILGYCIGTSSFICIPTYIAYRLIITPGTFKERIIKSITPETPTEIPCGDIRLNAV
Vascular endothelial growth factor receptor 2, sequence (P35968 whole entry): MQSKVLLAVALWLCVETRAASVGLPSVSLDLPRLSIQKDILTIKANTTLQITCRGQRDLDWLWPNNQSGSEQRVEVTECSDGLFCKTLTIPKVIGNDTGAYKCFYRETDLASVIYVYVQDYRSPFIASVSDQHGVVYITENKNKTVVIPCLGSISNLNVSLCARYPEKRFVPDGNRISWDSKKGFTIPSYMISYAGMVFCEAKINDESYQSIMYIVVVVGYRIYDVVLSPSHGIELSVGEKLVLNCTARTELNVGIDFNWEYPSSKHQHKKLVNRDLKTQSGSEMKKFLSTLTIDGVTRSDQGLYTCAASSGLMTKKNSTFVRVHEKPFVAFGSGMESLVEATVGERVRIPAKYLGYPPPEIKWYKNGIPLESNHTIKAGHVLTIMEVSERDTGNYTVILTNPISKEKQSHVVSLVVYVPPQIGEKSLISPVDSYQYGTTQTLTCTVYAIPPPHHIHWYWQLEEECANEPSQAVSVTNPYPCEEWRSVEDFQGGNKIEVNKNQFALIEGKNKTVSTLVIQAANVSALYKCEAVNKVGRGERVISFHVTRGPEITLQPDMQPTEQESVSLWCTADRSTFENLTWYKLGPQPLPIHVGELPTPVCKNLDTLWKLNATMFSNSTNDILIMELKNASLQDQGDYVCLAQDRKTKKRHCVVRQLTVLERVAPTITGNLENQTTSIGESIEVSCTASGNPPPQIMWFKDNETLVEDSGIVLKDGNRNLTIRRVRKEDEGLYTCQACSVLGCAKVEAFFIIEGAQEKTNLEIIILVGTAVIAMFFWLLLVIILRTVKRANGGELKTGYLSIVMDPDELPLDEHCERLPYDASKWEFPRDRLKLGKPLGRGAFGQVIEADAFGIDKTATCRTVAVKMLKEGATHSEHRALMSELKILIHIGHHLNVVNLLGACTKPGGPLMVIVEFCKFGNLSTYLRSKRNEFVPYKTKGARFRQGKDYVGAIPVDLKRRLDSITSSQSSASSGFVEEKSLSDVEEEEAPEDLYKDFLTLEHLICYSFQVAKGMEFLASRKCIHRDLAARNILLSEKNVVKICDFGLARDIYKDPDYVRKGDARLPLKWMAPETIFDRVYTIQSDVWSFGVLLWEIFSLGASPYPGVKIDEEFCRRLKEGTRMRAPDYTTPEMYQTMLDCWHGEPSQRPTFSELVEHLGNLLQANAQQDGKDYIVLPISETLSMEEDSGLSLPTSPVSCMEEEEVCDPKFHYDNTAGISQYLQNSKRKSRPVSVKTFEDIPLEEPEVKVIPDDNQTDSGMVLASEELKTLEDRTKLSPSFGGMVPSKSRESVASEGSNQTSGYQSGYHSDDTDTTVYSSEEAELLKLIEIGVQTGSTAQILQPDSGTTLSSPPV
Sodium-dependent noradrenaline transporter, sequence (P23975 whole entry): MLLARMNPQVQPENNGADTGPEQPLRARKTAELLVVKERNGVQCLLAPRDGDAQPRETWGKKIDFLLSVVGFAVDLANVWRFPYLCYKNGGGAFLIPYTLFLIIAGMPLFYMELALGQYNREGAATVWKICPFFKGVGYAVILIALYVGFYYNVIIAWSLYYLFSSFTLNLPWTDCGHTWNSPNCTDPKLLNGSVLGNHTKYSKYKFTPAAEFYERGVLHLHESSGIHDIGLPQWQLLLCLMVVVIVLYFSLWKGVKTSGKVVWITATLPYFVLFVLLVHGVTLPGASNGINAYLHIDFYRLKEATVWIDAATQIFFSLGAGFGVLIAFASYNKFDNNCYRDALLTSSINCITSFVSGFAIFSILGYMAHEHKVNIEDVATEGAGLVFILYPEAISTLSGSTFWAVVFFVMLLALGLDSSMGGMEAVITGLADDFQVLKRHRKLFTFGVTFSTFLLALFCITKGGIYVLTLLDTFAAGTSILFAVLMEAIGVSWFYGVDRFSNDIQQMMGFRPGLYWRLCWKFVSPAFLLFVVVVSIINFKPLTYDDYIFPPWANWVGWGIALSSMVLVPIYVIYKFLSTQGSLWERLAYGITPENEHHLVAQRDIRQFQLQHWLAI

NC1CCN(c2c(F)cc3c(=O)c(C(=O)O)cn(C4CC4)c3c2Cl)C1 (configuration not stated) [CLINAFLOXACIN]
AC50 [1]: > 30 µM
AC50 [2]: 5.08 µM
AC50 [3]: > 30 µM
AC50 [4]: > 30 µM
AC50 [5]: > 30 µM
AC50 [6]: > 30 µM
AC50 (Thromboxane A2 receptor): > 30 µM
AC50 [7]: > 30 µM
AC50 [8]: > 30 µM
AC50 [9]: > 30 µM
AC50 [10]: > 30 µM
AC50 (Mu-type opioid receptor): 4.91 µM
